Laboratory results reported in ChEMBL document CHEMBL5338813 (J Med Chem, 2023).

Assays:
[1] = test system: Cryptosporidium parvum; test: Antiparasitic activity against Cryptosporidium parvum infected in human HCT-8 cells assessed as parasitic growth inhibition incubated for 48 hrs by fluorescence microscopic analysis; type: functional, organism-based; settings: HCT-8, 48 h
[2] = test system: HCT-8; test: Cytotoxicity against human HCT-8 cells assessed as reduction in cell number upto 50 uM incubated for 48 hrs by; type: toxicity, cell-based; settings: hct-8, 48 h
[3] = molecular target: hERG (KCNH2) (Homo sapiens, UniProt Q12809); test: (§1) Displacement of [3H]Dofetilide from human ERG at 30 uM by automated patch clamp assay relative to control; settings: probe [3H]Dofetilide, read-out: Activity
hERG (KCNH2), sequence (Q12809 whole entry): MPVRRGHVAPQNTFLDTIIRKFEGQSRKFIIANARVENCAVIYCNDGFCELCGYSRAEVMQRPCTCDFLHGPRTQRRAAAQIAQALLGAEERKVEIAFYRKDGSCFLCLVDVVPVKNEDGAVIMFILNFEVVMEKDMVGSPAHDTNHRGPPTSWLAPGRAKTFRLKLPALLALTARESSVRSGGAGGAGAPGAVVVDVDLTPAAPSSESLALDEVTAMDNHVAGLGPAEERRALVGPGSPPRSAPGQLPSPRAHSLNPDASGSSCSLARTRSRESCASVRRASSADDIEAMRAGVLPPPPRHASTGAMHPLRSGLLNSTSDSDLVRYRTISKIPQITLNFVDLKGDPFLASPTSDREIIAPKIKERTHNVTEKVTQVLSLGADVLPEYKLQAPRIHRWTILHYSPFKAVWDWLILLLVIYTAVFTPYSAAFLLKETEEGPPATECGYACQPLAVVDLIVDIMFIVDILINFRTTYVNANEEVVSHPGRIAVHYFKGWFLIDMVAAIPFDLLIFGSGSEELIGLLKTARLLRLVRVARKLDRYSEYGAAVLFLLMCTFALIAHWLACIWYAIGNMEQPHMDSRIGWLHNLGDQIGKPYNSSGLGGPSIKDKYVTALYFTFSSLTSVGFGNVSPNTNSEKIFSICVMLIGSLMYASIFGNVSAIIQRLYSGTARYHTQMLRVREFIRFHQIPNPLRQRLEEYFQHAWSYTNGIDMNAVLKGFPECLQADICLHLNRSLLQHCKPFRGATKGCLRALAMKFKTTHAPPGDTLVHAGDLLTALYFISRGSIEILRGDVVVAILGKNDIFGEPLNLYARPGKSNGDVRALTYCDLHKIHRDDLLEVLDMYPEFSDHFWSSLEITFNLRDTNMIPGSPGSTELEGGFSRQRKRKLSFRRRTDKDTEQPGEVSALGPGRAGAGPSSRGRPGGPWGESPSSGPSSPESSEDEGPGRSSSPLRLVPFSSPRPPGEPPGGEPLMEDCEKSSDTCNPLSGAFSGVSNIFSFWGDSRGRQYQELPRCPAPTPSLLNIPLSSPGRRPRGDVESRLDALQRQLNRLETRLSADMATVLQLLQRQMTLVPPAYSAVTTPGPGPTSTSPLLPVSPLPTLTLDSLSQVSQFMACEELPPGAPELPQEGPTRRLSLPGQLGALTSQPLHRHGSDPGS

[4] = molecular target: Voltage-gated inwardly rectifying potassium channel KCNH2 (Homo sapiens, UniProt Q12809); test: as §1; settings: 30 µM
Voltage-gated inwardly rectifying potassium channel KCNH2, sequence (Q12809 whole entry): as above

[5] = Metabolic stability in mouse liver microsomes assessed as intrinsic clearance measured upto 60 mins; type: ADME, Microsome; settings: read-out: CLH
[6] = Metabolic stability in mouse liver microsomes assessed as half life measured upto 60 mins; type: ADME, Microsome; settings: 1 h
[7] = Metabolic stability in mouse intestinal S9 fraction assessed as intrinsic clearance measured upto 60 mins; type: ADME, subcellular, Intestine; settings: read-out: CLH
[8] = Metabolic stability in mouse intestinal S9 fraction assessed as half life measured upto 60 mins; type: ADME, subcellular, Intestine; settings: s9, 1 h
[9] = Plasma protein binding in mouse at 1 uM incubated for 30 mins by LC-MS/MS analysis; type: ADME, cell-free; settings: 0.5 h
[10] = Plasma protein binding in human at 1 uM incubated for 30 mins by LC-MS/MS analysis; type: ADME, cell-free; settings: 0.5 h
[11] = AUC in mouse plasma at 5 mg/kg, po measured upto 24 hrs by LC-MS/MS analysis; type: ADME, organism-based; parameters: dose 5 mg/kg, time < 24 hrs, route po; settings: in vivo
[12] = AUC in mouse Jejunum at 5 mg/kg, po measured upto 24 hrs by LC-MS/MS analysis; type: ADME, organism-based; parameters: dose 5 mg/kg, time < 24 hrs, route po; settings: in vivo
[13] = Cmax in mouse plasma at 5 mg/kg, po measured upto 24 hrs by LC-MS/MS analysis; type: ADME, organism-based; parameters: time < 24 hrs, dose 5 mg/kg, route po; settings: in vivo
[14] = Cmax in mouse Jejunum at 5 mg/kg, po measured upto 24 hrs by LC-MS/MS analysis; type: ADME, organism-based; parameters: dose 5 mg/kg, time < 24 hrs, route po; settings: in vivo
[15] = Tmax in mouse plasma at 5 mg/kg, po measured upto 24 hrs by LC-MS/MS analysis; type: ADME, organism-based; settings: in vivo
[16] = Tmax in mouse Jejunum at 5 mg/kg, po measured upto 24 hrs by LC-MS/MS analysis; type: ADME, organism-based; settings: in vivo

Row | SMILES | EC50 [1] | Activity [2] | further results
1 | O=C(Cc1ccc(Cl)c(Br)c1)N1CCN(c2ccc3nncn3n2)CC1 | 0.12 µM | Non-Toxic | 
2 | O=C(Cc1ccc(Br)c(Cl)c1)N1CCN(c2ccc3nncn3n2)CC1 | 0.25 µM | Non-Toxic | 
3 | O=C(Cc1cccc(C(F)(F)F)c1)N1CCN(c2ccc3nncn3n2)CC1 | 1.1 µM | Non-Toxic | 
4 | COc1cc(CC(=O)N2CCN(c3ccc4nncn4n3)CC2)ccc1F | 1 µM | Non-Toxic | 
5 | O=C(Cc1ccc(S(F)(F)(F)(F)F)cc1)N1CCN(c2ccc3nncn3n2)CC1 | 12 µM | Non-Toxic | 
6 | O=C(Cc1ccc(F)c(CO)c1)N1CCN(c2ccc3nncn3n2)CC1 | 17 µM | Non-Toxic | 
7 | O=C(Cc1ccccc1Cl)N1CCN(c2ccc3nncn3n2)CC1 | > 25 µM | Non-Toxic | 
8 | O=C(Cc1cccc(Br)c1)N1CCN(c2ccc3nncn3n2)CC1 | 2.2 µM | Non-Toxic | 
9 | O=C(Cc1ccc(Br)c(F)c1)N1CCN(c2ccc3nncn3n2)CC1 | 0.77 µM | Non-Toxic | 
10 | O=C(Cc1cccc(C(F)(F)F)c1F)N1CCN(c2ccc3nncn3n2)CC1 | 62 µM | Non-Toxic | 
11 | O=C(Cc1ccc(F)c(Cl)c1)N1CCN(c2ccc3nncn3n2)CC1 | 0.24 µM | Non-Toxic | 
12 | O=C(Cc1ccc(F)c(C(F)F)c1)N1CCN(c2ccc3nncn3n2)CC1 | 0.47 µM | Non-Toxic | inhibition at 30 µM [3]: 23%
13 | O=C(Cc1cccc(Cl)c1Cl)N1CCN(c2ccc3nncn3n2)CC1 | > 25 µM | Non-Toxic | 
14 | O=C(Cc1ccc(Cl)c(F)c1)N1CCN(c2ccc3nncn3n2)CC1 | 0.41 µM | Non-Toxic | 
15 | O=C(Cc1ccc(F)cc1)N1CCN(c2ccc3nncn3n2)CC1 |  | Non-Toxic | 
16 | Cc1ccccc1CC(=O)N1CCN(c2ccc3nncn3n2)CC1 | > 50 µM | Non-Toxic | 
17 | O=C(Cc1ccc(F)c(OC(F)(F)F)c1)N1CCN(c2ccc3nncn3n2)CC1 | 0.67 µM | Non-Toxic | 
18 | O=C(Cc1ccc(F)c([N+](=O)[O-])c1)N1CCN(c2ccc3nncn3n2)CC1 | 0.62 µM | Non-Toxic | 
19 | O=C(Cc1ccc(CO)cc1)N1CCN(c2ccc3nncn3n2)CC1 | > 25 µM | Non-Toxic | 
20 | O=C(Cc1ccc(F)c(Br)c1)N1CCN(c2ccc3nncn3n2)CC1 | 0.23 µM | Non-Toxic | 
21 | O=C(Cc1ccc(F)c(O)c1)N1CCN(c2ccc3nncn3n2)CC1 | > 50 µM | Non-Toxic | 
22 | COc1ccc(CC(=O)N2CCN(c3ccc4nncn4n3)CC2)cc1F | 12 µM | Non-Toxic | 
23 | O=C(Cc1cc(F)cc(F)c1)N1CCN(c2ccc3nncn3n2)CC1 | 5.7 µM | Non-Toxic | 
24 | O=C(Cc1ccccc1Br)N1CCN(c2ccc3nncn3n2)CC1 | > 50 µM | Non-Toxic | 

Row | SMILES | EC50 [1] | Activity [2] | further results
25 | Cc1cccc(CC(=O)N2CCN(c3ccc4nncn4n3)CC2)c1 | 12 µM | Non-Toxic | 
26 | O=C(Cc1cccc([N+](=O)[O-])c1)N1CCN(c2ccc3nncn3n2)CC1 | 18 µM | Non-Toxic | 
27 | Cc1ccc(CC(=O)N2CCN(c3ccc4nncn4n3)CC2)cc1F | 5.3 µM | Non-Toxic | 
28 | O=C(Cc1cccc(S(F)(F)(F)(F)F)c1)N1CCN(c2ccc3nncn3n2)CC1 | 1.1 µM | Non-Toxic | 
29 | COc1ccc(CC(=O)N2CCN(c3ccc4nncn4n3)CC2)cc1 |  | Non-Toxic | 
30 | O=C(Cc1ccc(C(F)(F)F)c(Cl)c1)N1CCN(c2ccc3nncn3n2)CC1 | 0.34 µM | Non-Toxic | 
31 | O=C(Cc1c(Cl)cccc1Cl)N1CCN(c2ccc3nncn3n2)CC1 | > 25 µM | Non-Toxic | 
32 | O=C(Cc1cc(C(F)(F)F)ccc1F)N1CCN(c2ccc3nncn3n2)CC1 | 15 µM | Non-Toxic | 
33 | N#Cc1cccc(CC(=O)N2CCN(c3ccc4nncn4n3)CC2)c1 | 38 µM | Non-Toxic | 
34 | Cc1cc(CC(=O)N2CCN(c3ccc4nncn4n3)CC2)ccc1F | 0.37 µM | Non-Toxic | 
35 | Cc1ccc(CC(=O)N2CCN(c3ccc4nncn4n3)CC2)cc1Cl | 1.1 µM | Non-Toxic | 
36 | O=C(Cc1ccc(Cl)cc1)N1CCN(c2ccc3nncn3n2)CC1 |  | Non-Toxic | 
37 | O=C(Cc1cc(C(F)(F)F)cc(C(F)(F)F)c1)N1CCN(c2ccc3nncn3n2)CC1 | 0.32 µM | Non-Toxic | Activity [4]: 54%
38 | O=C(Cc1ccc(F)c(CF)c1)N1CCN(c2ccc3nncn3n2)CC1 | 0.76 µM | Non-Toxic | inhibition at 30 µM [3]: 38%
39 | O=C(Cc1ccc(O)c(F)c1)N1CCN(c2ccc3nncn3n2)CC1 | 53 µM | Non-Toxic | 
40 | O=C(Cc1cc(F)c(F)c(F)c1)N1CCN(c2ccc3nncn3n2)CC1 | 0.4 µM | Non-Toxic | 
41 | O=C(Cc1cc(Cl)ccc1Cl)N1CCN(c2ccc3nncn3n2)CC1 | 58 µM | Non-Toxic | 
42 | Cc1cc(F)ccc1CC(=O)N1CCN(c2ccc3nncn3n2)CC1 | 22 µM | Non-Toxic | 
43 | O=C(Cc1ccc(C(F)(F)F)c(F)c1)N1CCN(c2ccc3nncn3n2)CC1 | 2 µM | Non-Toxic | 
44 | O=C(Cc1ccc([N+](=O)[O-])cc1)N1CCN(c2ccc3nncn3n2)CC1 |  | Non-Toxic | 
45 | O=C(Cc1cc(F)cc(C(F)(F)F)c1)N1CCN(c2ccc3nncn3n2)CC1 | 1.7 µM | Non-Toxic | 
46 | Cc1cc(CC(=O)N2CCN(c3ccc4nncn4n3)CC2)cc(C(F)(F)F)c1F | 0.07 µM | Non-Toxic | 
47 | O=C(Cc1ccccc1F)N1CCN(c2ccc3nncn3n2)CC1 | > 60 µM | Non-Toxic | 
48 | N#Cc1ccc(CC(=O)N2CCN(c3ccc4nncn4n3)CC2)cc1F | 1.6 µM | Non-Toxic | 

Row | SMILES | EC50 [1] | Activity [2] | further results
49 | O=C(Cc1ccc(Br)cc1)N1CCN(c2ccc3nncn3n2)CC1 | 1.1 µM | Non-Toxic | 
50 | O=C(Cc1ccc(Cl)c(C(F)(F)F)c1)N1CCN(c2ccc3nncn3n2)CC1 | 0.27 µM | Non-Toxic | 
51 | O=C(Cc1ccc(Cl)c(Cl)c1)N1CCN(c2ccc3nncn3n2)CC1 |  |  | Activity [4]: 46%; microsomal CLint [5]: 85.2 µL/min/mg; t1/2 [6]: 1.38 h; microsomal CLint [7]: < 5.8 µL/min/mg; t1/2 [8]: > 2 h; PPB [9]: 92.7%; PPB [10]: 98.2%; AUC [11]: 3387 ng·h/mL; AUC [12]: 3013 ng·h/g; Cmax [13]: 532 ng/mL; Cmax [14]: 317 ng/g; Tmax [15]: 1 h; Tmax [16]: 1 h
52 | O=C(Cc1cccc(F)c1)N1CCN(c2ccc3nncn3n2)CC1 | 14 µM | Non-Toxic | 
53 | O=C(Cc1cccc(O)c1)N1CCN(c2ccc3nncn3n2)CC1 | 34 µM | Non-Toxic | 
54 | O=C(Cc1ccc(F)c(F)c1)N1CCN(c2ccc3nncn3n2)CC1 | 0.76 µM | Non-Toxic | 
55 | O=C(Cc1ccc(O)cc1)N1CCN(c2ccc3nncn3n2)CC1 | > 50 µM | Non-Toxic | 
56 | C#Cc1ccc(CC(=O)N2CCN(c3ccc4nncn4n3)CC2)cc1 | 0.88 µM | Non-Toxic | 
57 | O=C(Cc1cccc(-c2ccccc2)c1)N1CCN(c2ccc3nncn3n2)CC1 | 25 µM | Non-Toxic | 
58 | O=C(Cc1ccc(C(F)(F)F)cc1)N1CCN(c2ccc3nncn3n2)CC1 | 5.5 µM | Non-Toxic | 
59 | O=C(Cc1cc(Cl)cc(C(F)(F)F)c1)N1CCN(c2ccc3nncn3n2)CC1 | 0.41 µM | Non-Toxic | 
60 | O=C(Cc1cc(Cl)cc(Cl)c1)N1CCN(c2ccc3nncn3n2)CC1 | 1.2 µM | Non-Toxic | 
61 | O=C(Cc1cccc(Cl)c1)N1CCN(c2ccc3nncn3n2)CC1 |  | Non-Toxic | 
62 | O=C(Cc1cc(F)cc(Cl)c1)N1CCN(c2ccc3nncn3n2)CC1 | 0.88 µM | Non-Toxic | 
63 | Cc1cc(CC(=O)N2CCN(c3ccc4nncn4n3)CC2)ccc1Cl | 0.27 µM | Non-Toxic | 
64 | N#Cc1cc(CC(=O)N2CCN(c3ccc4nncn4n3)CC2)ccc1F | 2.1 µM | Non-Toxic | 
65 | O=C(Cc1ccc(Cl)cc1Cl)N1CCN(c2ccc3nncn3n2)CC1 | > 25 µM | Non-Toxic | 
66 | N#Cc1ccc(CC(=O)N2CCN(c3ccc4nncn4n3)CC2)cc1 |  | Non-Toxic | 
67 | O=C(Cc1ccc(-c2ccccc2)cc1)N1CCN(c2ccc3nncn3n2)CC1 | 56 µM | Non-Toxic | 
68 | COc1cccc(CC(=O)N2CCN(c3ccc4nncn4n3)CC2)c1 |  | Non-Toxic | 
69 | O=C(Cc1ccc([N+](=O)[O-])c(F)c1)N1CCN(c2ccc3nncn3n2)CC1 | 25 µM | Non-Toxic | 
70 | Cc1ccc(CC(=O)N2CCN(c3ccc4nncn4n3)CC2)cc1 | 10 µM | Non-Toxic | 
